Experimental data from US9328130B2, “Method of treating organism by biologically active compounds specifically delivered into mitochondria, pharmaceutical composition required for the use of the method and a compound applicable for this purpose” (MITOTECH S.A., priority 2005, dated 2016).

Tests used:
Hela cells [1] = experiment: Necrosis after photodynamic treatment (chloromethyl-X-rosamine, green light); type: cell-based, human
Description: Protection from photodynamic treatment was studied using cultured HeLa cells. Cells were incubated with photosensitizer chloromethyl-X-rosamine (0.5 μM, 15 min) which was then selectively accumulated within mitochondria. Cells were photoirradiated with green light (at maximum absorption for photosensitizer of […]) through the objective of microscope Axiovert 200M (Zeiss, Germany) for 1-2 min and analyzed 5 h later. Necrosis was determined by staining of nuclei with propidium iodide (2 μg/ml, 5 min).

[2] = tested on: Normal fibroblasts from the human skin and lung; experiment: Morphology and mobility of normal fibroblasts; type: cell-based; conditions: 20 nM for 6 days
Description: Normal fibroblasts from the human skin and lung and HeLa cells were cultivated at low cell density (20-30% confluency). Morphometric measurements were carried out for cell area, dispersion and elongation. Cytoskeleton structures were analyzed by staining the fixed cell preparations with rhodamine falloidin (actin filaments), antibodies against tubulin (microtubules) and vinculin (surface contacts). Mobility of the cells was examined with the help of microvideo camera.

[3] = Oxidation of quinols by superoxide-anion radicals generated in xanthine oxidase/hypoxanthine system; type: biochemical
Source text: In order to compare antioxidant activity of the reduced forms, we measured the oxidation rate of quinols by superoxide-anion radicals generated in xanthine oxidase/hypoxanthine system.

Hela cells [4] = tested on: Hela cells
Plants cuttings = experiment: Development of higher plants under darkness stress; type: in vivo
Description: Plants cuttings were grown at the artificial agarized medium MS supplemented with 1 μM SkQ1 (3 plants) and with no addition of SkQ1 as a control (3 plants). Cuttings were placed into 50 ml transparent tubes and grown in climate chamber for 3 weeks at 27° C. and periodical illumination (14 h of light, 10 h of darkness). Then the plants were subjected to darkness stress, i.e. were grown in complete darkness for 7 days.

[5] = tested on: coronary arteries of the isolated hearts of rats; experiment: Isolated perfused rat heart, perfusion pressure during H2O2 introduction; type: in vivo
Description: It is known that reactive oxygen species (ROS) have regulatory or toxic effects on a cardiac muscle depending on their concentrations. When studying SkQ1 compound its ability to modulate ROS action has been found. Experiments have been carried out in the isolated hearts of rats which were given SkQ1 intravenously or with nutrition (50 μg/kg). The heart was isolated 2 hours after intravenous introduction of the compound, or after 2-week nutritional supplementation. The heart was perfused retrogradely according to a standard procedure by Krebs solution with a constant rate, and perfusion pressure (PP) characterized the tonus of coronary arteries. A spontaneous heart rate and isovolumic pressure in a left ventricular latex balloon were also recorded. These parameters were monitored at 40-minute introduction of 150 mcM H2O2, a standard ROS generator.

Yarrowia lipolytica = experiment: Protection of yeast cells from death caused by hydrogen peroxide; type: cell-based
[6] = Transfer across the planar bilayer phospholipid membrane; type: physicochemical; conditions: 50 mM TrisHCl pH 7.4; 10^−7 to 10^−5 M; distributes according to Nernst equation
Source text: The experimental method has been used several times before in the experiments aimed at the exploring of an ability of different ions to penetrate the planar bilayer lipid membrane and is described in details Liberman […]., 1969, Nature, 222, 1076-8. This method includes the use of two chambers filled in with water-based solution and separated by bilayer membrane, also the electrometrical registration of transfer of charged compounds capable of penetration across such membrane from one chamber to another. In our experiment the membrane was made of mixture of […] and diphytanoyl derivative of […] dissolved in decane; both chambers were filled with 50 mM TrisHCl, pH 7.4 containing 10^-7 M SkQ1.

OXYS rats = experiment: Cataract and macular dystrophy in senescence-accelerated OXYS rats; type: in vivo, rat
Description: The animals were housed in cages (45*35*35 cm) and kept under standard laboratory conditions (at 22±1° C., 60% relative humidity, and natural light), provided with a standard rodent diet (PK-120-1, Ltd. ‘Laboratorsnab’, Russia), and given water ad libitum. At the age of 1.5 months after preliminary pupil dilation with 1% tropicamide ophthalmic the rats were conducted through ophthalmoscopic examination using direct ophthalmoscop “Betta”, Germany. […] We use Vitamin E for a comparison with test antioxidants. Animals received the compounds on a small piece of dried bread before a regular meal, and the control group of animals received the same piece of bread without any compound. After completing the course of antioxidants the animals were retested with ophthalmoscope. To avoid human factor in the evaluation of compound effects the researcher who conducted the ophthalmoscopic examination was not told which of the animals received antioxidants. The lens state was evaluated according to the classification system accepted in clinical practice with grades ranging from 0 to 3: score 0—the lens is clear; score 1—spotted weak cloudiness; score 2—multiple spots of cloudiness and score 3—intense cloudiness of the lens core and nucleus.

[7] = Spontaneous oxidation of reduced (quinol) forms by air oxygen; type: physicochemical; conditions: 20 mM MOPS-KOH, pH=7.6; aerobic
Description: Stability of the reduced (quinols) forms of SkQ1 and MitoQ under aerobic conditions was examined by analysis of the absolute absorption spectra of these compounds in a range from 240 to 310 nm using double-beam spectrophotometer Pye Unicam SP1100, England. Quinone derivatives were reduced with sodium tetrahydroborate in the medium containing 20 mM MOPS-KOH, pH=7.6. […] The level of reduced quinones was estimated by the size of peak area using the weighing method; absolute absorption value at 267 nm (maximum absorption) was used as a control.

[8] = OXYS rats age 3 months after oral course

For `CC1=C(C)C(=O)C(CCCCCCCCCC[P+](c2ccccc2)(c2ccccc2)c2ccccc2)=CC1=O.[Br-]` [SkQ1, 2,3-dimethyl-1,4-benzoquinon-5-decyl-triphenylphosphonium bromide], the necrotic cell death (Hela cells [1]; 1 μM added 1 h before photoirradiation) was 15±5%, the “necrosis from photodynamic treatment” value (Hela cells [1]; preincubated with 20 nM for 6 days) was 25±5% and the “amount of actin filaments, times higher” value [2] was 3.7 times. For the same compound, the “dispersion index lowered by factor” value [2] was 2.4, the “filament density in comparison to the control” value [2] was 136% and the “mean cell area, times higher than control” value [2] was 2.9 times. The mobility of fibroblasts [2] was “distinctly lower”, the “rate of fibroblast proliferation” value [2] was “no influence on the rate of fibroblast proliferation” and the elongation index ([2]; control 2.34) was 0.69. For the same compound, the “oxidation rate in the presence of both air oxygen and superoxide radical relative to MitoQ” value ([3]; FIG. 3a) was “about two times higher”, the “oxidation rate of quinol form by superoxide radical relative to MitoQ” value ([3]; oxidation by air oxygen subtracted, FIG. 3b) was “very much faster than MitoQ” and the “LD50 in the presence of hydrogen peroxide” value (Hela cells [4]; 100 μM hydrogen peroxide) was 20 µM. The “LD50 (concentrations at which 50% cells die)” value (Hela cells [4]; 2 h of incubation, no hydrogen peroxide) was 20 µM, the “colour of plants after darkness stress” value (Plants cuttings; 1 μM in MS medium, 7 days complete darkness) was “retained their green color” and the “plant size in comparison to control plants” value (Plants cuttings; 1 μM, additional 20 days normal lighting) was “more than 3 times”. The “PP change at the end of H2O2 introduction” value ([5]; prolonged consumption) was −29±6 mmHg, the “maximal PP decline” value ([5]; prolonged consumption (2-week nutritional supplementation)) was −38±5 mmHg and the “maximal PP decline versus initial level before H2O2” value ([5]; single intravenous introduction) was −43±5 mmHg. For the same compound, the “minimal perfusion pressure (PP) level” value ([5]; single intravenous introduction 50 μg/kg, heart isolated 2 hours later, 150 mcM H2O2) was 77±2 mm Hg, the “concentration as effective as 25 μM α-tocopherol” value (Yarrowia lipolytica) was 10 -fold lower and the “death of cells caused by hydrogen peroxide” value (Yarrowia lipolytica; 10 mM hydrogen peroxide) was “partially prevents the death”. For the same compound, the “effect on survival compared among protectants” value (Yarrowia lipolytica; FIG. 14, α-tocopherol 25 μM) was “very similar”, the “penetration of planar bilayer phospholipid membrane” value [6] was “penetrates the planar bilayer phospholipid membrane” and the “2nd stage of cataract” value (OXYS rats; [8]) was “all of them were defined as the 1st stage of cataract”. For the same compound, the “2nd stage of macular degeneration” value (OXYS rats; [8]) was “also were defined as the 1st stage of macular degeneration”, the “changes in the macular area of the retina” value (OXYS rats; [8]) was 38% and the “eyes with lens changes” value (OXYS rats; OXYS rats age 3 months after oral course from 1.5 to 3 months) was 46%. The “autooxidation of the reduced (quinol) form by air oxygen relative to MitoQ” value [7] was “about three-fold lower”.
